The text below walks through data of US20210267978A1, “NANOPARTICLE FORMULATIONS OF IKE AND METHODS OF USE THEREOF” (The Trustees of Columbia University in the City of New York, priority 2018, published 2021).

In one data set the test system is SUDHL-6 cells. As to the kind of experiment: Free fatty acid cell survival test with or without IKE (CellTiter-Glo). As to conditions: for toxicity of free fatty acid to cells: 100 μM, 24 hours; for effect of free fatty acid on IKE-induced ferroptosis: 10 μM fatty acid with IKE. Format: cell-based. From the text: Relative Area Under Curve (AUC) to DMSO cotreatment was used to indicate the sensitization or protection effect of free fatty acids to IKE-induced ferroptosis.
On the technique in general: ATP-based viability assays read luminescence as a measure of living cells.

Data set [1] can be described thus: Erastin and IKE solubility measurements (nephelometry). Format: physicochemical. The method, then:
Solubility measurement samples were prepared in a 96-well Corning Costar plate with two at 1% and 5% DMSO v/v with a total sample volume of 200 μL in MilliQ water. A BMG Labtech NEPHELOstar nephelometer was used to measure turbidity of the samples with the following parameters per the instrument manufacturer: Gain=80, Laser Focus=2.50 mm, and Laser Intensity=90%. Samples were shaken in the nephelometer by orbital shaking for 3 s prior to the turbidity measurement. Sample values were blanked in the instrument software using the corresponding water and DMSO condition values. Turbidity 4000 NTU Calibration Standard-Formazin (Millipore-Sigma) was used as a positive control for all turbidity measurements. The turbidity of each sample was measured within 20 minutes of initial preparation. After the initial measurement, the sample plates were covered with aluminum sealing film and allowed to sit overnight at room temperature prior to re-measuring.

Another data set deals with SUDHL 6 cells. As to the kind of experiment: Measurement of IKE PEG-PLGA cellular activity (CellTiter-Glo, 24 h). Conditions: fer-1 co-treatment. Format: cell-based. The method, then:
DLBCL cells or HT-1080 cells were plated at 2,000 cells per well in white 384-well plates (32 μL per well) in technical duplicates and incubated overnight. The cells were then treated with 8 μL medium containing a two-fold dilution series of vehicle 1 (DMSO), IKE, Fer-1, vehicle 2 (unfunctional PEG-PLGA nanoparticles), or IKE PEG-PLGA nanoparticles. The final concentration of IKE in PEG-PLGA nanoparticles were measured by LC-MS as described in the sections below. After 24 h incubation with compounds, 40 μL of 50% CellTiter-Glo (Promega) 50% cell culture medium was added to each well and incubated at room temperature with shaking for 15 min. Luminescence was measured using a Victor X5 plate reader (PerkinElmer). All cell viability data were normalized to the DMSO vehicle condition. Experiments were performed in three independent times with different passages for each cell line.

Data set [2] has as its system SUDHL6 cells. As to the kind of experiment: qPCR analysis of gene expression in cell culture. Format: cell-based. Conditions: SUDHL6 cells. The method, then:
To perform qPCR analysis in cell culture, DLBCL cells were treated with 0-10 μM IKE, Fer-1, or β-Me for the indicated times. RNA was extracted using the Qiashredder and Qiagen RNeasy Mini kits (Qiagen) according to the manufacture's protocol. 2 μg RNA from each sample was reversed transcribed to cDNA using a High Capacity cDNA Reverse Transcription Kit (Thermo Fisher Scientific, 4368814). Quantitative PCR reactions were performed using Power SYBR Green PCR Master Mix (Applied Biosystems) with triplicate measurement on ViiA 7 Real-Time PCR instrument (Thermo Fischer). HPRT1 was used as an internal reference. Differences in mRNA levels compared with HPRT1 were computed between vehicle and experimental groups using the ΔΔCt method. The primers used in the study were listed below.
(In general: In qPCR the cycle at which signal appears reflects the starting amount.)

Data set [3] concerns SUDHL6 cells. As to the kind of experiment: C-11 BODIPY lipid peroxidation measurement (flow cytometry). Conditions: 10 μM fer-1 co-treatment. The class given is cell-based. The method, then: 0.20 million SUDHL-6 cells were seeded in sixc^− well plates and treated with DMSO, IKE, or Fer-1 at specific concentration. The final cell density of 0.05 million cells/mL. After 24 h, cells were harvested by centrifuging at 300×g for 5 min. Cells were resuspended in 500 μL HBSS containing 2 μM C11-BODIPY (BODIPY 581/591 C11) (Thermo Fisher Scientific, D3861) and incubated at 37° C. for 15 min. Cells were pelleted and resuspended in HBSS. Fluorescence intensity was measured on the FL1 channel with gating to record live cells only (gate constructed from DMSO treatment group). A minimum of 10,000 cells were analyzed per condition.
On the technique in general: A flow cytometer gives signals particle by particle.

For the next data set, the system named is DLBCL cell lines. As to the kind of experiment: Fer-1 co-treatment rescue of IKE-induced cell death (CellTiter-Glo). Conditions: co-treatment with IKE, 24 hours. Format: cell-based. The method, then:
The cell viability was measured by co-treating cells with a two-fold series dilution of IKE (starting from 100 μM) and two-fold series dilution of Fer-1 (starting from 200 μM) for 24 hours followed by a Cell Titor-Glo luminescent cell viability test. […] Data are plotted as the mean±s.d., n=2 biologically replicates. Three independent experiments were performed with similar results.
DLBCL cells were plated at 10,000 cells per well in white 384-well plates (32 μL per well) in technical duplicates and incubated overnight. The cells were then treated with 8 μL medium containing a two-fold dilution series of vehicle (DMSO), IKE (starting from 100 μM) with or without Fer-1 (starting from 200 μM). After 24 h incubation, 40 μL of 50% CellTiter-Glo (Promega) 50% cell culture medium was added to each well and incubated at room temperature with shaking for 15 min. Luminescence was measured using a Victor X5 plate reader (PerkinElmer). All cell viability data were normalized to the DMSO vehicle condition. Experiments were performed three independent times with different passages for each cell line.

The test system of a further data set is GSH. As to conditions: Narang et al., 2007; Lo et al., 2010; cited from earlier work.
In data set [4] the test system is SUDHL6 cells. As to the kind of experiment: Reduced glutathione measurement in cell culture (Fluorometric-Green). Conditions: 10 μM β-ME co-treatment, 24 h. Format: cell-based. The method, then:
2.4 million cells were incubated with DMSO, IKE, or β-mercaptoethanol (β-Me) at a density of 0.2 million cells/mL for 24 h. Cells were collected and washed with cold PBS once. Cell number was counted by Vi-Cell. Cells were resuspended in ice cold RIPA buffer (Thermo Fisher Scientific, 89900) with 100 μL/one million cells. Samples were centrifuged for 15 min at 4° C. at 17,000×g. The resulting supernatant was deproteinized using a trichloroacetic acid and sodium bicarbonate solution and kept on ice. The sample was diluted with assay buffer provided in GSH/GSSG Ratio Detection Assay Kit (Abcam, ab13881) ten-fold. Reduced glutathione (GSH) levels were determined using Fluorometric-Green provided in the kit following the manufacture's protocol. 384-well (Corning) low volume black flat bottom polystyrene non-treated microplates 1230F99 were used in this experiment.

Molecules are shown by their SMILES.

With `CCCCC/C=C\C/C=C\C/C=C\C/C=C\CCCC(=O)O` [arachidonic acid], in the data set on SUDHL-6 cells, the “toxicity of free fatty acid to cells” value is listed as “toxic to cells”. Take `CCOc1ccccc1-n1c(C(C)N2CCN(C(=O)COc3ccc(Cl)cc3)CC2)nc2ccccc2c1=O` (stereo not shown) [erastin, reference compound]: the “water solubility (in words)” value in data set [1] is reported as “low water solubility”. On to `CCOC(=O)c1ccc(NC2CCCCC2)c(N)c1` [fer-1, ferrostatin-1, reference compound], for which, in the data set with SUDHL 6 cells, the “effect of co-treatment on cell death induced by IKE and IKE PEG-PLGA NPs” value is reported as “rescued cell death”. Besides, in the data set on SUDHL6 cells [2] (10 μM Fer-1 with 500 nM IKE for 6 hours), the “effect of co-treatment on IKE-induced PTGS2 upregulation” value is on record as “prevented”. Moreover, the “effect of co-treatment on IKE-induced CHAC1 upregulation” value in the data set with SUDHL6 cells [2] (Fer-1 co-treatment) is “did not inhibit”. The “effect of co-treatment on IKE-induced lipid ROS signal (C11-BODIPY)” value in the data set with SUDHL6 cells [3] is on record as “inhibited this signal”. Besides, the “effect of co-treatment on cell death induced by IKE” value in the data set with DLBCL cell lines was “rescued cell death”. As to `CCCCCCCC/C=C\CCCCCCCC(=O)O` [oleic acid], in the data set with SUDHL-6 cells, the “effect of free fatty acid on IKE-induced ferroptosis” value is on record as “protected against ferroptosis”. `CCCCCC/C=C\CCCCCCCC(=O)O` [palmitoleic acid]: the “effect of free fatty acid on IKE-induced ferroptosis” value in the data set with SUDHL-6 cells was “protected against ferroptosis”. Regarding `O=C(O)c1cc(/N=N/c2ccc(S(=O)(=O)Nc3ccccn3)cc2)ccc1O` [sulfasalazine], the “IC50 for GSH depletion” value in the data set with GSH is listed as “millimolar range”. With `OCCS` [β-ME, β-mercaptoethanol, reference compound], the “effect of co-treatment on IKE-induced upregulation of SLC7A11, CHAC1 and PTGS2 mRNAs” value with SUDHL6 cells [2] (10 μM β-Me with 500 nM IKE for 6 hours) is reported as “prevented”. Further, the “effect of co-treatment on GSH depletion by IKE” value in the data set on SUDHL6 cells [4] is on record as “reversed”. Consider `CCCCC/C=C\C/C=C\C/C=C\CCCCC(=O)O` [γ-linolenic acid], for which the “toxicity of free fatty acid to cells” value with SUDHL-6 cells was “toxic to cells”.
